Legend:
[1] = system: 8-year old young Cryptomeria japonica trees; test: Foliar spray of prohexadione compound on branches of 8-year old young Cryptomeria japonica trees (Example 1); type: in vivo; settings: 8-year old trees; for Branches Elongation: control group 24.6 ± 6.4; for Number of male flower clusters: 100 ml foliar spray, control group 136.9 ± 21.6
Experimental: Two 8-year old young Cryptomeria japonica trees (height: 8 m, diameter at breast height: 6 cm) which were in a nursery of an experimental plantation of the department of agriculture of Tottori University and which had formed male flowers every year were used. Three branches were selected at male flower-forming positions of each tree. These branches which were supposed to form the male flowers were treated with the prohexadione compound ([…]) on Jun. 5, 2001 (about one month before the beginning of July when Cryptomeria japonica flower buds were supposed to differentiate and Cryptomeria japonica flower buds were supposed to be formed). In this test, the prohexadione compound was diluted to a concentration shown in Table 3 given below with 60% (v/v) aqueous acetone solution.
The treatment method was as follows: 100 ml of the diluted solution obtained as described above was sprayed on leaves of the branches (50 cm long area from the branch top) with a hand sprayer In a control group, the leaves were treated with only 60% (v/v) aqueous acetone solution.
The concentrations of the prohexadione compound used for the foliar spray treatment were as follows: • Concentration (ppm) • 0.5 • 5 • 50 • 500

[2] = system: 43-year old Cryptomeria japonica trees; test: Aerial (helicopter curtain) application of the agent to a forest of 43-year old Cryptomeria japonica trees (Example 2); type: in vivo; settings: 43-year old trees; for Number of male flower clusters: Table 6 composition (polyoxyethylene castor oil, tetrahydrofurfuryl alcohol, water), 1.8 liters per 10 a by helicopter, control group 2985.8 ± 789.1; for Shoot Elongation: Table 6 composition, control group 80.8 ± 9.4
Experimental: A Cryptomeria japonica forest having 43-year old Cryptomeria japonica trees (height: 16 m, diameter at breast height: 35 cm) was treated in Nirayama experimental plantation of the department of agriculture of Tottori University on Jun. 25, 2001.
The concentration of the agent for inhibiting the formation of Cryptomeria japonica pollen thus sprayed was 50 or 500 ppm.
1.8 liters of each of the above described two compositions was applied to the forest having an area of 10 a by the curtain application method with a helicopter. The aerial application was conducted twice, using 0.9 liter of the composition each time. In a control group, only water free from the active ingredients was used for the aerial application.

Branches Elongation ([1]; 0.5 ppm foliar spray): 25.5 ± 7.2 cm
Elongation growth of the Cryptomeria japonica branches versus control group (in words) ([1]; 0.5 to 500 ppm): substantially unchanged
Branches Elongation ([1]; 5 ppm foliar spray): 26.2 ± 6.5 cm
Branches Elongation ([1]; 50 ppm foliar spray): 24.3 ± 6.3 cm
Branches Elongation ([1]; 500 ppm foliar spray): 25.2 ± 5.5 cm
Shoot Elongation ([2]; 50 ppm, aerial application): 83.3 ± 10.7 cm
Shoot Elongation ([2]; 500 ppm, aerial application): 82.8 ± 11.2 cm
SMILES: CCOC(=O)C1CC(=O)C(=C(O)C2CC2)C(=O)C1 (stereo not shown)
Number of male flower clusters ([1]; 0.5 ppm in 60% aqueous acetone): 111.6 ± 25.2
Number of male flower clusters ([1]; 5 ppm in 60% aqueous acetone): 70.4 ± 12.4
Number of male flower clusters ([1]; 50 ppm in 60% aqueous acetone): 21.2 ± 6.5
Effect of inhibiting the differentiation and formation of male Cryptomeria japonica flowers (in words) ([1]; 50 ppm or 500 ppm): remarkable
Number of male flower clusters ([1]; 500 ppm in 60% aqueous acetone): 10.8 ± 6.1
Elongation growth of the Cryptomeria japonica trees versus control group (in words) ([2]; 50 or 500 ppm, aerial application): substantially the same as that in the control group
Effect of inhibiting the differentiation and formation of the male flowers (in words) ([2]; 50 ppm or 500 ppm, aerial application): remarkable effect
Number of male flower clusters ([2]; 50 ppm): 751.3 ± 121.5
Number of male flower clusters ([2]; 500 ppm): 124.2 ± 55.2
